The first data set is described as follows: method code SF-HPLC, from DOI: 10.1021/jm00047a008, PMID: 7932579. As to conditions: pH 5.0.
In turn, `Cc1ccc2c(c1)c(C)c1c3ccccc3nc-1n2C` showed a logD of 2.04.

The same data set, now with this note: pH 9.0.
Regarding `Cc1ccc2nc3n(C)c4ccc(C)cc4c(C)c-3c2c1`, the logD stood at 2.42. For `Cc1c2c3ccccc3nc-2n(C)c2ccccc12`, the logD was 2.58. Turning to `Cc1cccc2c(C)c3c(nc12)[nH]c1ccccc13`, the logD is 2.92.

On to `Cn1c2nc3ccccc3c-2cc2ccccc21`, for which the logD came to 3.04.

Molecule `Cc1ccc2nc3[nH]c4ccc(C)cc4c3c(C)c2c1` had a logD of 2.58.

`Cc1c2ccccc2nc2[nH]c3ccccc3c12` registered a logD of 2.69. Molecule `Cc1c2c3ccccc3nc-2n(C)c2c(C)cccc12` displayed a logD of 2.46. Regarding `c1ccc2nc3[nH]c4ccccc4c3cc2c1`, the logD came to 2.44.

(Values after the SangsterLogP compilation.)
